# Measurements from US20210380548A1, “Fused [1,2,4]Thiadiazine Derivatives Which Act as KAT Inhibitors of the MYST Family” (CTxT Pty Limited, priority 2017, published 2021).
# Legend:
# [1] = test system: histone H2A.Z Lysine 7 acetylation (TIP60 mediated) in U2OS cells; assay: H2A.Z Lysine 7 Acetylation Biomarker Assay (96 well, U2OS); format: cell-based; details: Homo sapiens, Table 7, H2A.Z K7ac, 24 hours incubation, serum free medium
# Experimental: To discover a global TIP60/KAT5 cellular biomarker useful for monitoring PD responses of TIP60 inhibition in vitro and in vivo, various histone modifications were assessed for TIP60 dependence through genetic (TIP60 siRNA and CRISPR/Cas9) or TIP60 pharmacological inhibition. This analysis clearly identified acetylation of the histone variant H2A.Z at Lysine 7 (H2A.ZK7ac) as a global histone mark which is TIP60-dependent in both human and mouse cells. To a lesser extent, TIP60 also acetylated lysine 4 and 11 of H2A.Z.
# Compounds may be tested for their ability to inhibit the histone H2A.Z Lysine 7 acetylation biomarker (which is TIP60 mediated) in the following assay:
# The cell line U2OS was seeded at a density of 9,000 cells per well in 96 well optical quality tissue culture plates in RPMI medium and 10% foetal bovine serum, and allowed to adhere for 24 hours under standard culture conditions (37 degree Celsius, 5% CO2). At the end of this period the cells were washed with serum free medium. Compound dilutions prepared in DMSO were added to the serum free medium, with negative control wells reserved for treatment with DMSO only and positive controls receiving a potent inhibitor compound (e.g. Example 146) at 20 μM concentration. After incubation for 24 hours, the cells were fixed with 3.7% formaldehyde in PBS for 20 minutes at room temperature, washed with phosphate buffer saline containing 0.1% Tween 20 and blocked with Odyssey blocking buffer (LI-COR, Lincoln, Nebr.) containing 0.1% TritonX100. Anti-H2A.Z K7ac specific antibody (Abcam) in Odyssey blocking buffer containing 0.1% Tween 20 was added and incubated for 14 hours at 4 degree Celsius. After washing, a secondary antibody labelled with Alexa647 dye (LifeTechnologies) and Hoechst 33342 (10 μM, SigmaAldrich) were added for 1 hour incubation. Plates were washed and read on a PerkinElmer Phenix high content imaging platform. Using a Columbus image analysis pipeline, individual nuclei were located by Hoechst 33342 stain and the acetylation level was calculated from the Alexa647-related intensity in the same area. The resulting mean intensity per cell was directly converted to percent inhibition relative to controls on the same plate and the data fitted against a four-parameter logistic model to determine the 50% inhibitory concentration (IC50).
# [2] = test system: histone H3K23 acetylation (KATE mediated) in U2OS cells; assay: Histone H3 Lysine 23 Acetylation Biomarker Assay (U2OS); format: cell-based; details: Homo sapiens, 96 well, 24 hours incubation
# Summary of the method: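 U2OS cells were treated with compound for 24 h, then fixed and immunostained for H3K23ac with Hoechst nuclear counterstain. Per-nucleus Alexa647 intensity was quantified by high-content imaging and converted to % inhibition against DMSO and 10 μM reference-inhibitor controls. IC50 was derived from a four-parameter logistic fit.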
# QKF-KAT6B = target: T1, QKF-KAT6B (Homo sapiens, UniProt Q8WYB5); assay: Acetyltransferase biochemical assay (AlphaScreen), KAT6B; details: Table 5 (QKF-KAT6B); 0.4 μM Acetyl coenzyme A, histone H3.1, 8 nM enzyme
# T1 construct: purchased SignalChem K315-381BG
# T1 sequence (Q8WYB5 whole entry): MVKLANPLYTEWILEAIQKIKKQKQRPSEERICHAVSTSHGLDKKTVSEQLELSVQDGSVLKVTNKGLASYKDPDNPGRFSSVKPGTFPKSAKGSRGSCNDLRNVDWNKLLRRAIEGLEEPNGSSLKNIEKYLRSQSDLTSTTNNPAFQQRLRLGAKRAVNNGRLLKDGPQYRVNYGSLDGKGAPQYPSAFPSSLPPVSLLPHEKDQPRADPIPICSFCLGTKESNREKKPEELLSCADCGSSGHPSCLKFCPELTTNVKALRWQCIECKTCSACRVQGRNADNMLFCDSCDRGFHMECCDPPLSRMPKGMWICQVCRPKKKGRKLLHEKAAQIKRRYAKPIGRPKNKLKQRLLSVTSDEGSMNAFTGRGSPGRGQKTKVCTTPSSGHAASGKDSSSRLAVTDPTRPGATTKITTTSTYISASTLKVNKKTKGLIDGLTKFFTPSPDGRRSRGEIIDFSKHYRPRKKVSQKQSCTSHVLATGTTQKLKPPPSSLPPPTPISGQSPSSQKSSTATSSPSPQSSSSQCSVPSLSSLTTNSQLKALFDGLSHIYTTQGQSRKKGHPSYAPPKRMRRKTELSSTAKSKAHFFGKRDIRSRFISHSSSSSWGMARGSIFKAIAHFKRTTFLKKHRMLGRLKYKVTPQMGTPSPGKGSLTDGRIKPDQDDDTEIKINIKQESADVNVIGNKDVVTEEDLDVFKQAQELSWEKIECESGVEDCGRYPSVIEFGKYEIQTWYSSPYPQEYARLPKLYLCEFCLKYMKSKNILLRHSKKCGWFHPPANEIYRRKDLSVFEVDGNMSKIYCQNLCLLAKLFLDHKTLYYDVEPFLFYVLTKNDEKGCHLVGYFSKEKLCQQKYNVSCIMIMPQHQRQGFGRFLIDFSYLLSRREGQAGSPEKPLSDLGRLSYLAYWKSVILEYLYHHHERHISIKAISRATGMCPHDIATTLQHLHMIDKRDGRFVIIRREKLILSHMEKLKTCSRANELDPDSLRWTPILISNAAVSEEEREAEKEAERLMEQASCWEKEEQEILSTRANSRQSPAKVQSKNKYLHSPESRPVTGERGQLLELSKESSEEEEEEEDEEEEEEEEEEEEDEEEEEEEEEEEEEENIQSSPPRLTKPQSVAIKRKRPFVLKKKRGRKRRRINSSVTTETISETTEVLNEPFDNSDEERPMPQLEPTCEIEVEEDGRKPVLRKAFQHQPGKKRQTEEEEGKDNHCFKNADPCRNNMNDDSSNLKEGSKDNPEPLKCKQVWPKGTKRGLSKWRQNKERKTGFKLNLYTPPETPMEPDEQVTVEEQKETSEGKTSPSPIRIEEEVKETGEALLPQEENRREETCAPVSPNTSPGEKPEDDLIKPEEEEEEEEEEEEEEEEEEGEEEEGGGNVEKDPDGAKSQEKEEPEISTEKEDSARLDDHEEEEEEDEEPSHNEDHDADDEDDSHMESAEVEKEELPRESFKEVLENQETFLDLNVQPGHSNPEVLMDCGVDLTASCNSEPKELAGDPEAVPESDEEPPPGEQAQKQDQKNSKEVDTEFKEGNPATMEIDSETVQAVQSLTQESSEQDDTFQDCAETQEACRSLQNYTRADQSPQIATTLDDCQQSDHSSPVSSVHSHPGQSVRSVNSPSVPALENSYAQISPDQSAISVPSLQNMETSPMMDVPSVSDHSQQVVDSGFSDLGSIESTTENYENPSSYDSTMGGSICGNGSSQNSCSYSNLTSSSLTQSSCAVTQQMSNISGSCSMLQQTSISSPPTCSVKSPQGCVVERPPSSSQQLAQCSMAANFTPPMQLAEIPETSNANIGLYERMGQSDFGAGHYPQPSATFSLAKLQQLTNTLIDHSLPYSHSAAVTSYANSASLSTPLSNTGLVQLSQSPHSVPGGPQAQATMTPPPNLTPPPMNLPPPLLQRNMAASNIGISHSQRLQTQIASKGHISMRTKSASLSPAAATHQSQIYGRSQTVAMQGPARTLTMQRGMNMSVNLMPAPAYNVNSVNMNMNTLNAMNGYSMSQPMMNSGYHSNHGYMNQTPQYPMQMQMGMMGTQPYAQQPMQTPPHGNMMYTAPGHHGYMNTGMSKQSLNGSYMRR
IC50 [1] [µM],IC50 [2] [nM],IC50 (QKF-KAT6B) [nM],Compound
2.18,64,,"O=C(NCC(c1ccccc1)c1ncco1)C1=Nc2ccc(Br)cc2S(=O)(=O)N1 (stereo not drawn) [Example 1, 7-Bromo-N-(2-(oxazol-2-yl)-2-phenylethyl)-2H-benzo[e][1,2,4]thiadiazine-3-carboxamide 1,1-dioxide]"
30,178,122,"O=C(NCC(c1ccccc1)c1ncco1)C1=Nc2ccccc2S(=O)(=O)N1 (stereo not drawn) [Example 46, N-(2-(oxazol-2-yl)-2-phenylethyl)-2H-benzo[e][1,2,4]thiadiazine-3-carboxamide 1,1-dioxide]"
2.06,1420,,"O=C(NCCc1ccccc1-n1nccn1)C1=Nc2ccc(I)cc2S(=O)(=O)N1 [Example 60, N-(2-(2H-1,2,3-triazol-2-yl)phenethyl)-7-iodo-2H-benzo[e][1,2,4]thiadiazine-3-carboxamide 1,1-dioxide]"
10,7690,,O=C(NCCc1ccccc1OC(F)F)C1=Nc2ccc(I)cc2S(=O)(=O)N1 [Example 91]
